1 compound from US10857151B1, “Treatment of female genital schistosomiasis” (Villya LLC, priority 2020, dated 2020) can be followed below.

For assay [1], the system named is blood-borne infection of schistosomiasis. Briefly: Blood test for schistosomiasis using Schisto POC-CCA in FGS after treatment. Format: in vivo, human. To be noted: female with FGS; three doses of 20 mg/kg oral praziquantel; after two weeks.
Assay [2] relates to schistosomiasis worms in the vagina. Briefly: Microscope observation of vaginal swab sample slides for schistosomiasis worms in FGS after treatment. The format is in vivo, human. Particulars: after two weeks. An excerpt:
A single dose of Praziquantel as described in Example 1 was vaginally inserted into the subject.

Consider `O=C(C1CCCCC1)N1CC(=O)N2CCc3ccccc3C2C1` (stereo not drawn) [praziquantel], for which, in assay [1], the “blood retested for schistosomiasis” value is recorded as “negative for schistosomiasis”. The “observation of vaginal sample from brushing with a swab on microscope slides” value in assay [2] (female with FGS, three doses of 20 mg/kg oral praziquantel) is given as “live schistosomiasis worms still in the vagina”. For the same compound, in assay [2] (single dose vaginally inserted as in Example 1 (600 mg praziquantel in 2.5 g K-Y Jelly), same subject after oral treatment), the “slides observed under the microscope for schistosomiasis worms” value is “negative for schistosomiasis worms”.
